Assay results from US7932262B2 (Novartis AG, priority 2006, dated 2011).
Where two headings read alike, the source gives them in different places.

Tests used:
[1] = target: T1, PDK1 kinase (Homo sapiens, UniProt O15530); assay: PDK1 Kinase Alpha Screen Assay; type: biochemical
T1 sequence (O15530 1-556): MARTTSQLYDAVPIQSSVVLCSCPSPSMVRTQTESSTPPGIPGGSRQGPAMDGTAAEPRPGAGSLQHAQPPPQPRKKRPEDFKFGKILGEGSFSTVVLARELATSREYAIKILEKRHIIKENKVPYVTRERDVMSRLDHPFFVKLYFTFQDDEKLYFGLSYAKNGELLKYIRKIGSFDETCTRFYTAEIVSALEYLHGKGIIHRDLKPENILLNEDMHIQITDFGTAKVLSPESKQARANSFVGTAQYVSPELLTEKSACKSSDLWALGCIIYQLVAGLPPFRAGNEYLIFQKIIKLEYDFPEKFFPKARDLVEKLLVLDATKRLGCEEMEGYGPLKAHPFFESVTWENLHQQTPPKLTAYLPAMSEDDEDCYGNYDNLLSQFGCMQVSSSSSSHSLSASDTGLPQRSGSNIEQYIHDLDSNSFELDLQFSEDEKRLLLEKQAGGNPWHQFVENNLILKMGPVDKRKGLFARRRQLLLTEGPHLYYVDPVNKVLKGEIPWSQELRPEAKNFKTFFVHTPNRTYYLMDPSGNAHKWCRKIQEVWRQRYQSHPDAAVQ
Outline: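 Kinase inhibition measured as loss of AlphaScreen signal from antibody recognition of phosphorylated biotin-PDK1-4 peptide. Reactions contain 10 uM ATP and 50 nM peptide, run 3-18 hours before EDTA quench and overnight bead development at room temperature.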

[2] = test system: PC-3 cells; assay: Cell Proliferation Assay (Cell Titer Glo), PC-3 cell line; type: cell-based
Outline: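 Cell Titer Glo luminescence, read after fresh medium replaced the dosing medium, gave viability of PC-3 cells plated at 1000 cells/well. Compounds, 1:3 serially diluted in DMSO at 500× and then in medium, were added after 3-5 h adhesion and incubated 3 days at 37° C.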

[3] = Homo sapiens, PC-3, PC3 cells, read-out: CPEC50 PC3
[4] = PDK1 Kinase Alpha Screen Assay, read-out: PDK1 IC50
[5] = Homo sapiens, PC-3, Cell Proliferation Assay, PC3, read-out: CPEC50 PC3

Compound | IC50 [1, 4] | EC50 [2, 5] | also measured
NS(=O)(=O)c1ccc(Nc2ncc3cc(C(F)(F)F)cc(-c4ccc(N5CCNC(=O)C5)nc4)c3n2)cc1 [Compound 965, 4-(8-(6-(3-oxopiperazin-1-yl)pyridin-3-yl)-6-(trifluoromethyl)quinazolin-2-ylamino)benzenesulfonamide] | – | – | IC50 ([1]; read-out: PDK1 IC50): < 5 µM; EC50 [2, 3]: < 5 µM
8-(6-(2-(pyrrolidin-1- yl)ethylamino)pyridin-3-yl)-N-(4- (trifluoromethoxy)phenyl)quinazoin- 2-amine [Compound 394] | < 5 µM | – | EC50 ([2]; Cell Proliferation Assay, PC3, read-out: CPEC50 PC3): < 5 µM
Cc1nc(Nc2ccc(S(N)(=O)=O)cc2)nc2cc(OCCC3CCNCC3)ccc12 [Compound 583] | 10 to 25 µM | 5 to 10 µM | –
CC(=O)N1CCC(Oc2cccc3cnc(Nc4ccc(S(N)(=O)=O)cc4)nc23)CC1 [Compound 539, 4-(8-(1-acetylpiperidin-4-yloxy)quinazolin-2-ylamino)benzenesulfonamide] | < 5 µM | < 5 µM | –
CN1CCN(c2ccc(-c3cc(C(F)(F)F)cc4cnc(Nc5ccc(S(N)(=O)=O)cc5)nc34)cn2)CC1 [Compound 964, 4-(8-(6-(4-methylpiperazin-1-yl)pyridin-3-yl)-6-(trifluoromethyl)quinazolin-2-ylamino)benzenesulfonamide] | – | – | IC50 ([1]; read-out: PDK1 IC50): 5 to 10 µM; EC50 [2, 3]: < 5 µM
Clc1cc(Nc2ncc3c(Cl)ccc(OC4CNC4)c3n2)ccc1N1CCOCC1 [Compound 611, 8-(azetidin-3-yloxy)-5-chloro-N-(3-chloro-4-morpholinophenyl)quinazolin-2-amine] | < 5 µM | < 5 µM | –
O=c1[nH]c2ccc(Nc3ncc4cccc(-c5ccc(NCCN6CCCC6)nc5)c4n3)cc2[nH]1 [Compound 1000, 5-(8-(6-(2-(pyrrolidin-1-yl)ethylamino)pyridin-3-yl)quinazolin-2-ylamino)-1H-benzo[d]imidazol-2(3H)-one] | – | – | IC50 ([1]; read-out: PDK1 IC50): < 5 µM; EC50 [2, 3]: < 5 µM
CC(C)N1CCC(Nc2ccc(Cl)c3cnc(Nc4ccc(C(=O)N5CCOCC5)cc4)nc23)CC1 [Compound 695, (4-(5-chloro-8-(1-isopropylpiperidin-4-ylamino)quinazolin-2-ylamino)phenyl)(morpholino)methanone] | < 5 µM | 5 to 10 µM | –
C#Cc1cc2cnc(Nc3ccc(C(=O)N4CCOCC4)cc3)nc2cc1OC1CCNCC1 [Compound 641] | < 5 µM | < 5 µM | –
CC(C)N1CCC(Oc2ccc3cnc(Nc4ccc(F)cc4)nc3c2)CC1 [Compound 60, (4-Fluoro-phenyl)-[7-(1-isopropyl-piperidin-4-yloxy)-quinazolin-2-yl]-amine] | – | – | IC50 ([1]; read-out: PDK1 IC50): < 5 µM; EC50 ([2]; Homo sapiens, PC-3, 72 h, PC-3 cells, 3 days incubation, read-out: CP EC50 PC3): 5 to 10 µM
CC(=O)N1CCN(Cc2cncc(-c3cccc4cnc(Nc5ccc(S(N)(=O)=O)cc5)nc34)c2)CC1 [Compound 949, 4-(8-(5-((4-acetylpiperazin-1-yl)methyl)pyridin-3-yl)quinazolin-2-ylamino)benzenesulfonamide] | – | – | IC50 ([1]; read-out: PDK1 IC50): < 5 µM; EC50 [2, 3]: 5 to 10 µM
c1ccc(Nc2ncc3cccc(OC4CCNCC4)c3n2)cc1 [Compound 479, N-phenyl-8-(piperidin-4-yloxy)quinazolin-2-amine] | < 5 µM | < 5 µM | –
CN1CCC(Nc2ccc3cnc(Nc4ccc(S(=O)(=O)N5CCOCC5)cc4)nc3c2)CC1 [Compound 346, N7-(1-methylpiperidin-4-yl)-N2-(4-(morpholinosulfonyl)phenyl)quinazoline-2,7-diamine] | < 5 µM | < 5 µM | –
CC(C)N1CCC(Oc2ccc3cnc(Nc4cccc(N5CCCC5)c4)nc3c2)CC1 [Compound 579, 7-(1-isopropylpiperidin-4-yloxy)-N-(3-(pyrrolidin-1-yl)phenyl)quinazolin-2-amine] | < 5 µM | 5 to 10 µM | –
c1cc(N2CCOCC2)ccc1Nc1ncc2cc(C3CC3)cc(OC3CCNCC3)c2n1 [Compound 703, 6-cyclopropyl-N-(4-mropholinophenyl)-8-(piperidin-4-yloxy)quinazolin-2-amine] | < 5 µM | < 5 µM | –
NS(=O)(=O)c1ccc(Nc2ncc3cccc(-c4cncc(CN5CCOCC5)c4)c3n2)cc1 [Compound 942, 4-(8-(5-(morpholinomethyl)pyridin-3-yl)quinazolin-2-ylamino)benzenesulfonamide] | – | – | IC50 ([1]; read-out: PDK1 IC50): < 5 µM; EC50 [2, 3]: < 5 µM

Compound | IC50 [1, 4] | EC50 [2, 5] | also measured
Clc1cc(Nc2ncc3c(Cl)ccc(OC4CCNCC4)c3n2)ccc1N1CCOCC1 [Compound 602] | < 5 µM | < 5 µM | –
Brc1cc2cnc(Nc3ccc(N4CCOCC4)cc3)nc2cc1OC1CCNCC1 [Compound 650, 6-bromo-N-(4-morpholinophenyl)-7-(piperidin-4-yloxy)quinazolin-2-amine] | < 5 µM | < 5 µM | –
CC(=O)Nc1cccc(Nc2ncc3cccc(-c4ccc(N5CCN(C)CC5)nc4)c3n2)c1 [Compound 442, N-(3-(8-(6-(4-methylpiperazin-1-yl)pyridin-3-yl)quinazolin-2-ylamino)phenyl)acetamide] | < 5 µM | < 5 µM | –
N#Cc1ccc(Nc2ncc3cccc(-c4ccc(NCCN5CCCC5)nc4)c3n2)cc1 [Compound 427, 4-(8-(6-(2-(pyrrolidin-1-yl)ethylamino)pyridin-3-yl)quinazolin-2-ylamino)benzonitrile] | < 5 µM | < 5 µM | –
Clc1cc(Nc2ncc3c(Br)ccc(OC4CCNCC4)c3n2)ccc1N1CCOCC1 [Compound 338, 5-bromo-N-(3-chloro-4-morpholinophenyl)-8-(piperidine-4-yloxy) quinazolin-2-amine] | < 5 µM | < 5 µM | –
CC(C)N1CCC(Oc2ccc3cnc(Nc4ccc(OC(F)(F)F)cc4)nc3c2)CC1 [Compound 319, 7-(1-isopropylpiperidin-4-yloxy)-N-(4-(trifluoromethoxy)phenyl)quinazolin-2-amine] | < 5 µM | < 5 µM | –
CC(C)NC(=O)c1ccc(Nc2ncc3cc(C#N)c(OC4CCN(C(C)C)CC4)cc3n2)cc1 [Compound 639] | < 5 µM | < 5 µM | –
CC(C)NS(=O)(=O)c1ccc(Nc2ncc3c(Cl)ccc(OC4CNC4)c3n2)cc1 [Compound 615, 4-(8-(azetidin-3-yloxy)-5-chloroquinazolin-2-ylamino)-N-isopropylbenzenesulfonamide] | < 5 µM | < 5 µM | –
O=C(O)c1ccc(Nc2ncc3cccc(OC4CCNCC4)c3n2)cc1F [Compound 441, 2-fluoro-4-(8-(piperidin-4-yloxy)quinazolin-2-ylamino)benzoic acid] | < 5 µM | 5 to 10 µM | –
C#Cc1cc2cnc(Nc3ccc(C(=O)N4CCOCC4)cc3)nc2cc1-c1ccc2c(c1)CCNC2=O [Compound 1041, 6-(6-ethynyl-2-(4-(morpholine-4-carbonyl)phenylamino)quinazolin-7-yl)-3,4-dihydroisoquinolin-1(2H)-one] | – | – | IC50 ([1]; head of the second part of Table 4: BV11261, read-out: PDK1 BV11261): < 5 µM; EC50 [2, 3]: 5 to 10 µM
CC(C)N1CCC(Oc2cccc3cnc(Nc4cccc(N5CCCC5)c4)nc23)CC1 [Compound 551, 8-(1-isopropylpiperidin-4-yloxy)-N-(3-(pyrrolidin-1-yl)phenyl)quinazolin-2-amine] | < 5 µM | 5 to 10 µM | –
CC(C)NCc1cncc(-c2cccc3cnc(Nc4ccc(S(N)(=O)=O)cc4)nc23)c1 [Compound 946, 4-(8-(5-((isopropylamino)methyl)pyridin-3-yl)quinazolin-2-ylamino)benzenesulfonamide] | – | – | IC50 ([1]; read-out: PDK1 IC50): < 5 µM; EC50 [2, 3]: < 5 µM
CN1CCN(c2ccc(-c3cccc4cnc(Nc5cc(C(=O)N6CCCC6)cc(C(F)(F)F)c5)nc34)cn2)CC1 [Compound 468, (3-(8-(6-(4-methylpiperazin-1-yl)pyridin-3-yl)quinazolin-2-ylamino)-5-(trifluoromethyl)phenyl)(pyrrolidin-1-yl)methanone] | 5 to 10 µM | < 5 µM | –
c1cc(Nc2ncc3cccc(OC4CCNCC4)c3n2)cc(N2CCOCC2)c1 [Compound 545, N-(3-morpholinophenyl)-8-(piperidin-4-yloxy)quinazolin-2-amine] | < 5 µM | < 5 µM | –
Fc1ccc(Nc2ncc3cccc(OC4CCNCC4)c3n2)cc1Br [Compound 484, N-(3-bromo-4-fluorophenyl)-8-(piperidin-4-yloxy)quinazolin-2-amine] | < 5 µM | < 5 µM | –
Fc1cc(F)cc(Nc2ncc3cccc(-c4ccc(NCCN5CCCC5)nc4)c3n2)c1 [Compound 428, N-(3,5-difluorophenyl)-8-(6-(2-(pyrrolidin-1-yl)ethylamino)pyridin-3-yl)quinazolin-2-amine] | < 5 µM | < 5 µM | –
